Test results from ChEMBL document CHEMBL4311992, “Discovery of 3-(((9H-purin-6-yl)amino)methyl)-4,6-dimethylpyridin-2(1H)-one derivatives as novel tubulin polymerization inhibitors for treatment of cancer” (Eur J Med Chem, 2019).
pIC50: −log10 of the molar value.

Legend:
DLD-1 = assay: Antiproliferative activity against human DLD1 cells assessed as reduction in cell viability after 72 hrs by MTT assay; assay type: functional, cell-based; details: DLD-1, 72 h
[1] = biological target: STE20-like serine/threonine-protein kinase (Homo sapiens) (UniProt Q9H2G2); assay: Inhibition of human SLK (1 to 373 residues) using RLGRDKYKTLRQIRQ as substrate measured after 40 mins in presence of [gamma33P]ATP by scintillation counting method; set-up: scale not given: the % may be the effect or the level left
Chain of STE20-like serine/threonine-protein kinase (Homo sapiens) (Q9H2G2 whole entry, looked up, the tested form may be a part): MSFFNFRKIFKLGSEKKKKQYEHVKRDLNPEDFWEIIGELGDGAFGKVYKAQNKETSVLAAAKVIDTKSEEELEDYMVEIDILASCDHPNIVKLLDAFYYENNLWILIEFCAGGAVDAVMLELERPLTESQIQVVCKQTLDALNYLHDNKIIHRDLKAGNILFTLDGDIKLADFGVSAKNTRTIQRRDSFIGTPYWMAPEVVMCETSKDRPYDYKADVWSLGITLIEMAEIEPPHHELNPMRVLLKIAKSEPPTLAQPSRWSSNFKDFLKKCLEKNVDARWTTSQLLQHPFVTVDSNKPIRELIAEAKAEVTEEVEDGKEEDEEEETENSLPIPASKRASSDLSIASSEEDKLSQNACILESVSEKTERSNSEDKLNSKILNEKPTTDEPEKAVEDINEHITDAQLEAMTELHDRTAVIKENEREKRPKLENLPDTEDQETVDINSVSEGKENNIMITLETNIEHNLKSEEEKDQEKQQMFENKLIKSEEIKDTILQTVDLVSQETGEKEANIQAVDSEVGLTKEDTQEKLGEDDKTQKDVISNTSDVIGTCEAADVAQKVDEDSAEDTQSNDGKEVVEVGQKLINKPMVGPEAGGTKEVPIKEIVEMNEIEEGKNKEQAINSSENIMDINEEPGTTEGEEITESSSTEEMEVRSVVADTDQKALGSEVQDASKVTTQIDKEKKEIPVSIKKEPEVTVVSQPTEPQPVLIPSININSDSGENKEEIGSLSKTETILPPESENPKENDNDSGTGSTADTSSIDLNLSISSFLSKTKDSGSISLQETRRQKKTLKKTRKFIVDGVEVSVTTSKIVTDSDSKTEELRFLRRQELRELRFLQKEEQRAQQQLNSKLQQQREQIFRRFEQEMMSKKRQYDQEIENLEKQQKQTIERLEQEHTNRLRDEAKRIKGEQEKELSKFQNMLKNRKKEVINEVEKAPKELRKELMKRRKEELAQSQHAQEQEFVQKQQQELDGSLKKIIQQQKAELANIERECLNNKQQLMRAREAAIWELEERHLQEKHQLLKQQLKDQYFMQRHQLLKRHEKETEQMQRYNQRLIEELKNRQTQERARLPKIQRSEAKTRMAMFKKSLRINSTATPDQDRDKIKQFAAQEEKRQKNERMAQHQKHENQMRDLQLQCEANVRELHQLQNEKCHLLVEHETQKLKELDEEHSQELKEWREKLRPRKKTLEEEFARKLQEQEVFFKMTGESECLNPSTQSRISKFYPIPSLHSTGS

[2] = biological target: Serine/threonine-protein kinase D2 (Homo sapiens) (UniProt Q9BZL6); assay: Inhibition of recombinant full-length human PKD2 assessed as residual activity at 10 uM using KKLNRTLSVA as substrate measured after 40 mins in presence of [gamma33P]ATP by scintillation counting method
[3] = biological target: Protein kinase C beta type (Homo sapiens) (UniProt P05771); assay: Inhibition of recombinant human PKCbeta1 (2 to end residues) assessed as residual activity at 10 uM using histone H1 as substrate measured after 40 mins in presence of [gamma33P]ATP by scintillation counting method
[4] = tested on: Hepatocyte growth factor receptor (Homo sapiens), P08581 [D1228N]; assay: Inhibition of recombinant human MET A1209G/V1290L/D1246N mutant (974 to end residues) assessed as residual activity at 10 uM using KKKGQEEEYVFIE as substrate measured after 40 mins in presence of [gamma33P]ATP by scintillation counting method
[5] = biological target: Calcium/calmodulin-dependent protein kinase type 1G (Homo sapiens) (UniProt Q96NX5); assay: Inhibition of human CaMK1gamma; set-up: scale not given: the % may be the effect or the level left
Chain of Calcium/calmodulin-dependent protein kinase type 1G (Homo sapiens) (Q96NX5 whole entry): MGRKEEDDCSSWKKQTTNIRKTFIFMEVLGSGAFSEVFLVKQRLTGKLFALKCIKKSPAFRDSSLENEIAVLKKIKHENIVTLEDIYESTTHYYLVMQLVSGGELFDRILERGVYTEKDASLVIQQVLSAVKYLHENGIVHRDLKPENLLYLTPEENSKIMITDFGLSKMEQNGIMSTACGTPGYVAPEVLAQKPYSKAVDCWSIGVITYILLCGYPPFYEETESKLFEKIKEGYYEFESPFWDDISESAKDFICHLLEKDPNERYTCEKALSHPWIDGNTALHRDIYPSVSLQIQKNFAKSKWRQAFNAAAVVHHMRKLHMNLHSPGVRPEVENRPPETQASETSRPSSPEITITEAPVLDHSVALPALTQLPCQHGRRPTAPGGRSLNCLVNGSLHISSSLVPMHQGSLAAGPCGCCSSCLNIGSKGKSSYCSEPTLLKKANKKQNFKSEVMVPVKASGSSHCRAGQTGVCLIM

[6] = biological target: Tyrosine-protein kinase TXK (Homo sapiens) (UniProt P42681); assay: Inhibition of human Txk (256 to end residues) using GEEPLYWSFPAKKK as substrate measured after 40 mins in presence of [gamma33P]ATP by scintillation counting method; set-up: scale not given: the % may be the effect or the level left
Mus musculus = species: Mus musculus; assay: Inhibition of recombinant full-length mouse PI3K p110beta/p85alpha R123L mutant assessed as residual activity at 10 uM using phosphatidylinositol-4, 5-bisphosphate as substrate measured after 40 mins by HTRF assay
[7] = biological target: Protein-tyrosine kinase 6 (Homo sapiens) (UniProt Q13882); assay: Inhibition of full-length recombinant human BRK assessed as residual activity at 10 uM using poly(Glu, Tyr) 4:1 as substrate measured after 40 mins in presence of [gamma33P]ATP by scintillation counting method
Homo sapiens = species: Homo sapiens; assay: Inhibition of recombinant human BrSK2 S251I mutant (2 to end residues) assessed as residual activity at 10 uM using KKLNRTLSFAEPG as substrate measured after 40 mins in presence of [gamma33P]ATP by scintillation counting method
[8] = biological target: Serine/threonine-protein kinase B-raf (Homo sapiens) (UniProt P15056); assay: Inhibition of recombinant human BRAF (416 to end residues) assessed as residual activity at 10 uM using myelin basic protein as substrate measured after 40 mins in presence of [gamma33P]ATP by scintillation counting method
Chain of Serine/threonine-protein kinase B-raf (Homo sapiens) (P15056 whole entry): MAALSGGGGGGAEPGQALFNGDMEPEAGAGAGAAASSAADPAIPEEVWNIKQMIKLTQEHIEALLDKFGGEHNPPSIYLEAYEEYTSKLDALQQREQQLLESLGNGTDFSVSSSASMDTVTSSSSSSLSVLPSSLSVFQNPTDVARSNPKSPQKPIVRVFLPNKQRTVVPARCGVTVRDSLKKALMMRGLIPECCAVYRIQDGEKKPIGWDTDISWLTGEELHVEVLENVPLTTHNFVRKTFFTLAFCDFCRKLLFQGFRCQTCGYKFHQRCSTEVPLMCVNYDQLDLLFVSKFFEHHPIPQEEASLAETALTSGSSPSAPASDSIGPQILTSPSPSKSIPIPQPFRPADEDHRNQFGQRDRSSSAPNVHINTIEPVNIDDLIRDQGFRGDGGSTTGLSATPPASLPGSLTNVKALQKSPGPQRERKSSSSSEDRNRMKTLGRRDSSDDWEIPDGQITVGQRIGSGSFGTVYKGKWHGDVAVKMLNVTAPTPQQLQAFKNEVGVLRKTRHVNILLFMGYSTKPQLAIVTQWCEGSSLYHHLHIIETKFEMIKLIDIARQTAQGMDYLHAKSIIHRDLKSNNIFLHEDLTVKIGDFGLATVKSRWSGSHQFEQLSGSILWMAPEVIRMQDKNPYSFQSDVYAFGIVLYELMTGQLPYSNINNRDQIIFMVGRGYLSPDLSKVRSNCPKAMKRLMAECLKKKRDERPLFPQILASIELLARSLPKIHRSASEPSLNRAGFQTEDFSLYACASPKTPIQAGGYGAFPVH

[9] = tested on: Mast/stem cell growth factor receptor Kit (Homo sapiens), P10721 [V654A]; assay: Inhibition of recombinant human c-Kit V654A mutant (544 to end residues) assessed as residual activity at 10 uM using GGMEDIYFEFMGGKKK as substrate measured after 40 mins in presence of [gamma33P]ATP by scintillation counting method
Chain of Mast/stem cell growth factor receptor Kit (Homo sapiens), P10721 [V654A] (P10721 whole entry V654A): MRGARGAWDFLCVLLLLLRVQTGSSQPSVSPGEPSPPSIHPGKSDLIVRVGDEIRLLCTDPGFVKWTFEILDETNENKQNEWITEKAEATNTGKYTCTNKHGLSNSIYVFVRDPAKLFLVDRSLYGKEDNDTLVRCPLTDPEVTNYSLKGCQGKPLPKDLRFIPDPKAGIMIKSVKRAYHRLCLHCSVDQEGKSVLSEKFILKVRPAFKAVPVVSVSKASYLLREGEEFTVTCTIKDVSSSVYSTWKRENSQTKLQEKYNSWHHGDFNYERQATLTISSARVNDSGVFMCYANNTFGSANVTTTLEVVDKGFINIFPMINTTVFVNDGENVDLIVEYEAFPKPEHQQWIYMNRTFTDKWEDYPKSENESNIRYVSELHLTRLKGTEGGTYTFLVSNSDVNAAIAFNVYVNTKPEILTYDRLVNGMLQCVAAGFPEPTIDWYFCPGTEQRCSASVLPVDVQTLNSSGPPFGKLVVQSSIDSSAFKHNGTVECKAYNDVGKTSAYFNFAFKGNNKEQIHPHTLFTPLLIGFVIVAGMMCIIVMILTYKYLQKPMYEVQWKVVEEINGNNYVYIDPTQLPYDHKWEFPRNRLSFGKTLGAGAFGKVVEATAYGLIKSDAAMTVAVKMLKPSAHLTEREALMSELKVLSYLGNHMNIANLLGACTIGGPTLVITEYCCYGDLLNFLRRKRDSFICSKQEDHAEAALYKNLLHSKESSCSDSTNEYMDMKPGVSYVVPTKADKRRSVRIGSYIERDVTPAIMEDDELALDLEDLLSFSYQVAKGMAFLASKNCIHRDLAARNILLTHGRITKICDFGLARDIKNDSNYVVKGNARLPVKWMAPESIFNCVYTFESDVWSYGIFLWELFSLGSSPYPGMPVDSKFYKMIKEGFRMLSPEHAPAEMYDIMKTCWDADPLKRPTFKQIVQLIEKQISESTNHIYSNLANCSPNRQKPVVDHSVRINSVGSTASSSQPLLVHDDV

[10] = biological target: Dual specificity protein kinase CLK2 (Homo sapiens) (UniProt P49760); assay: Inhibition of recombinant human CLK2 (138 to end residues) assessed as residual activity at 10 uM using YRRAAVPPSPSLSRHSSPHQS(p)EDEEE as substrate measured after 40 mins in presence of [gamma33P]ATP by scintillation counting method
Chain of Dual specificity protein kinase CLK2 (Homo sapiens) (P49760 whole entry, looked up): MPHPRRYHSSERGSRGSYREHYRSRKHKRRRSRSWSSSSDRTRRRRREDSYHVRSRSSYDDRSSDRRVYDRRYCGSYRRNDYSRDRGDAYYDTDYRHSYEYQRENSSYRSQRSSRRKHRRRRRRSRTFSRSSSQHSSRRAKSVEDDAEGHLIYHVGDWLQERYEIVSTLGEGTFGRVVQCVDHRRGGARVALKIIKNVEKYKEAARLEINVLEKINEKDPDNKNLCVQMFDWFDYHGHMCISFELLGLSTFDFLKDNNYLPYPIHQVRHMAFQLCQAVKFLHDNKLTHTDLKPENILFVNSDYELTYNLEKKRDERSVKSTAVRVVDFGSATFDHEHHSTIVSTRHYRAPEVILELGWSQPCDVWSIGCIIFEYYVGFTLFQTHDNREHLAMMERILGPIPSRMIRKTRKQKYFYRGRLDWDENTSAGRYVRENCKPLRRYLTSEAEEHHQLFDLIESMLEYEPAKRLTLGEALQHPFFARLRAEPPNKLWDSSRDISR

[11] = biological target: Serine/threonine-protein kinase 17B (Homo sapiens) (UniProt O94768); assay: Inhibition of recombinant full-length human DRAK2 assessed as residual activity at 10 uM using KKRPQRRYSNVF as substrate measured after 120 mins in presence of [gamma33P]ATP by scintillation counting method
[12] = biological target: Dual specificity tyrosine-phosphorylation-regulated kinase 3 (Homo sapiens) (UniProt O43781); assay: Inhibition of recombinant full-length human DYRK3 assessed as residual activity at 10 uM using RRRFRPASPLRGPPK as substrate measured after 40 mins in presence of [gamma33P]ATP by scintillation counting method
[13] = biological target: Tyrosine-protein kinase HCK (Homo sapiens) (UniProt P08631); assay: Inhibition of recombinant human HCK (230 to 497 residues) assessed as residual activity at 10 uM using Cdc2 peptide as substrate measured after 40 mins in presence of [gamma33P]ATP by scintillation counting method
[14] = biological target: Mitogen-activated protein kinase 1 (Mus musculus) (UniProt P63085); assay: Inhibition of mouse MAPK2 assessed as residual activity at 10 uM
[15] = biological target: Dual specificity mitogen-activated protein kinase kinase 3 (Homo sapiens) (UniProt P46734); assay: Inhibition of human MKK3 assessed as residual activity at 10 uM by radiometric method
Chain of Dual specificity mitogen-activated protein kinase kinase 3 (Homo sapiens) (P46734 whole entry, canonical isoform): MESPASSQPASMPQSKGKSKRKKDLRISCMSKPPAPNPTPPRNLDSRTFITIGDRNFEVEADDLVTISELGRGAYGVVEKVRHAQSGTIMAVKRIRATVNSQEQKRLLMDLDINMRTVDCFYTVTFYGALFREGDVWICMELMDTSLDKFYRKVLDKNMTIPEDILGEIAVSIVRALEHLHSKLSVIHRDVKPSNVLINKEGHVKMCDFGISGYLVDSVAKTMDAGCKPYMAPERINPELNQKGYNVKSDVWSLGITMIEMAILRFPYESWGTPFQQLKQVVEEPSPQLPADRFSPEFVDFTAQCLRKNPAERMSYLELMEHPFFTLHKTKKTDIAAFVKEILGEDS

[16] = biological target: Phosphorylase b kinase gamma catalytic chain, skeletal muscle/heart isoform (Homo sapiens) (UniProt Q16816); assay: Inhibition of recombinant full-length human PhKgamma1 assessed as residual activity at 10 uM using KKLNRTLSFAEPG as substrate measured after 120 mins in presence of [gamma33P]ATP by scintillation counting method
[17] = tested on: Phosphorylase b kinase gamma catalytic chain, liver/testis isoform (Homo sapiens), P15735 [F290L]; assay: Inhibition of recombinant human PhKgamma2 F290L mutant (1 to 301 residues) assessed as residual activity at 10 uM using KKLNRTLSFAEPG as substrate measured after 40 mins in presence of [gamma33P]ATP by scintillation counting method
Chain of Phosphorylase b kinase gamma catalytic chain, liver/testis isoform (Homo sapiens), P15735 [F290L] (P15735 whole entry F290L, the tested form may be a part, canonical isoform): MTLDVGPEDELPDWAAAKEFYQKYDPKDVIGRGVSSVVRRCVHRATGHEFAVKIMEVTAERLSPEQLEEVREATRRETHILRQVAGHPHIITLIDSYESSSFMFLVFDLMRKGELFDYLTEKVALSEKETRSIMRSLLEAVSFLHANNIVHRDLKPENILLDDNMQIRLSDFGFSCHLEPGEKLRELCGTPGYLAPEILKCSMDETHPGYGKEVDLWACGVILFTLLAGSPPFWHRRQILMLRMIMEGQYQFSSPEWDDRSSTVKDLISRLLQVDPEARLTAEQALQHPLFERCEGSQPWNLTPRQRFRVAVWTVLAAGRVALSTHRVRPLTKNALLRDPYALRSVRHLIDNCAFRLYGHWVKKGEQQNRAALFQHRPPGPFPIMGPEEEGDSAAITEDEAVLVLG

[18] = biological target: Protein-tyrosine kinase 2-beta (Homo sapiens) (UniProt Q14289); assay: Inhibition of recombinant full-length human Pyk2 assessed as residual activity at 10 uM using poly(Glu, Tyr) 4:1 as substrate measured after 40 mins in presence of [gamma33P]ATP by scintillation counting method
[19] = tested on: Proto-oncogene tyrosine-protein kinase Src (Homo sapiens), P12931 [T341M]; assay: Inhibition of recombinant full-length human Src T341M mutant assessed as residual activity at 10 uM using GGEEEEYFELVKKKK as substrate measured after 40 mins in presence of [gamma33P]ATP by scintillation counting method
[20] = biological target: Tyrosine-protein kinase SYK (Homo sapiens) (UniProt P43405); assay: Inhibition of recombinant full-length human Syk assessed as residual activity at 10 uM using poly(Glu, Tyr) 4:1 as substrate measured after 120 mins in presence of [gamma33P]ATP by scintillation counting method
[21] = biological target: Death-associated protein kinase 3 (Homo sapiens) (UniProt O43293); assay: Inhibition of human ZIPK (1 to 290 residues) using KKLNRTLSFAEPG as substrate measured after 40 mins in presence of [gamma33P]ATP by scintillation counting method; set-up: scale not given: the % may be the effect or the level left

For `Cc1cc(C)c(CNc2nc(Cl)nc3c2ncn3C2CCCC2)c(=O)[nH]1`, the pIC50 (DLD-1) was 6.87, the Activity [1] was 95.5% and the Activity [2] was 120%. The Activity [3] was 96%, the Activity [4] was 112% and the Activity [5] was 126%. It also gave an Activity [6] of 84%, an Activity (Mus musculus) of 104% and an Activity [7] of 100%. The Activity (Homo sapiens) was 123%, the Activity [8] was 122% and the Activity [9] was 90%. The Activity [10] was 132%, the Activity [11] was 101% and the Activity [12] was 122%. For the same compound, the Activity [13] was 106%, the Activity [14] was 97.5% and the Activity [15] was 100%. The Activity [16] was 104%, the Activity [17] was 92% and the Activity [18] was 97%. It also gave an Activity [19] of 122%, an Activity [20] of 123% and an Activity [21] of 110%.
